Read-outs that look alike come from different tables or passages of the source.
How the values were obtained:
[1] = Solubility of the salt in water at ambient temperature; assay type: physicochemical
Method: To the solution of (R)-2-[3-[4-amino-3-(2-fluoro-4-phenoxy-phenyl)pyrazolo[3,4-d]pyrimidin-1-yl]piperidine-1-carbonyl]-4-methyl-4-[4-(oxetan-3-yl)piperazin-1-yl]pent-2-enenitrile (having about 9/1 E/Z ratio) (4.2 g) in EtOAc (60 mL, 15 vol) was added sulfuric acid (0.31 g, 0.17 mL, 0.5 eq) in EtOAc (20 mL, 5 vol) at ambient temperature. The suspension was stirred at ambient temperature for ˜2 hr and then 40° C. for 4 hr and then at ambient temperature for at least 1 hr. After filtration and drying at ambient temperature under vacuum, 1.5 g of white powder was obtained. Solubility of the hemi-sulfate at ambient temperature was >100 mg/mL in water.

[2] = Solubility of Compound (I) at low pH; assay type: physicochemical
[3] = Site specific gastrointestinal dosing (oral gavage, intraduodenal, intrajejunal) in rats, plasma AUC; assay type: in vivo, Wister-Hans rats; conditions: for AUC: Wister-Hans, rat, plasma
Method: Compound (I) was dosed in 10 mg/mL aqueous citrate solution at 20 mg/kg to Wister-Hans rats. Free base of Compound (I) was dissolved in aqueous solution of citric acid (containing 0.5 equivalents of anhydrous citiric acid) . The experiment was repeated 3 times each with 2 separate arms, and one oral (PO) gavage arm was included in each study. Intra-jejunal (IJ) and intra-duodenal (ID) dosing was done in cannulated rats. In the first study, there was about 40-fold increase in the AUC for the IJ-dosed group compared to the PO group, and the major metabolite, present in the PO arm was reduced by 20 fold in the IJ-group.

[4] = system: intestinal tissue (stomach, duodenum, jejunum, ileum, colon); assay: In vitro permeation in Ussing chambers through different intestinal regions of rat; assay type: in vitro ADME, Sprague-Drawley rats; conditions: 100 uM, mucosal to serosal, distal regions compared to stomach or duodenum, FIG. 7
Method: Reagents: 10× Krebs-Ringer buffer (KRB) comprised of 1.26M NaCl (Promega, Madison, Wis.), 25mM KCl, 250 mM NaHCO3, 12 mM NaH2PO4, 12 mM MgCl2, 25 mM CaCl2 and 18 g/L D-Glucose (all from Sigma Aldrich, St. Louis, Mo.) prepared and stored individually to prevent crystallization. Dilute to 1× working concentration prior to use and pH adjusted with either carbogen perfusion for 20 mins to pH 7.4 (oxygenated KRB) or 1M HCl (Alfar Aesar, Ward Hill, Mass.) to pH 3.5, 6.5 or 7.4. 0.1% Phenol red, Antipyrine and Atenolol were purchased from Sigma Aldrich, St. Louis, Mo.
Harvest and preparation of intestinal tissue: 4 to 9 month old adult female virgin Sprague-Drawley rats (Harlan Laboratories, Livermore, Calif.) were acclimated in-house for a minimum of 3 days prior to experimentation. Adolescent and geriatric animals should be avoided to prevent age-related differences in gastro-intestinal morphology and function. Animals were housed under IACUC-approved husbandry protocols including 12-hour light and 12-hour dark cycles, and allowed standard chow and water ad libitum. Tissue harvest should be performed one animal at a time to maintain tissue viability. […]

Structure (SMILES) | solubility [1] [mg/mL] | solubility at low pH [2] | increase in AUC, ID compared to oral gavage ([3]; ID vs PO) | metabolic stability by site of administration ([3]; IJ dosing compared to oral gavage) | AUC ([3]; 20 mg/kg, intraduodenum cannula, 20 mg/kg, aqueous citrate solution, read-out: AUC, intraduodenal (ID) dosing) [ng·h/mL] | AUC ([3]; other: intrajejunal, 20 mg/kg, intrajejunum cannula, 20 mg/kg, aqueous citrate solution, read-out: AUC, intrajejunal (IJ) dosing) [ng·h/mL] | AUC ([3]; po, 20 mg/kg, oral (PO) gavage, 20 mg/kg, 10 mg/mL aqueous citrate solution, read-out: AUC, oral gavage) [ng·h/mL] | AUC, intrajejunal (IJ) dosing ([3]; intrajejunum cannula, 20 mg/kg, aqueous citrate solution) | AUC, oral gavage ([3]; oral (PO) gavage, 20 mg/kg, 10 mg/mL aqueous citrate solution) [ng·h/mL] | permeability (Papp) by region of the GI tract [4]
CC(C)(C=C(C#N)C(=O)N1CCC[C@@H](n2nc(-c3ccc(Oc4ccccc4)cc3F)c3c(N)ncnc32)C1)N1CCN(C2COC2)CC1 [hemi-sulfate, (R)-2-[3-[4-amino-3-(2-fluoro-4-phenoxy-phenyl)pyrazolo[3,4-d]pyrimidin-1-yl]piperidine-1-carbonyl]-4-methyl-4-[4-(oxetan-3-yl)piperazin-1-yl]pent-2-enenitrile] | > 100 |  |  |  |  |  |  |  |  | 
CC(C)(C=C(C#N)C(=O)N1CCCC(n2nc(-c3ccc(Oc4ccccc4)cc3F)c3c(N)ncnc32)C1)N1CCN(C2COC2)CC1 [Compound (I), (R)-2-[3-[4-amino-3-(2-fluoro-4-phenoxy-phenyl)pyrazolo[3,4-d]pyrimidin-1-yl]piperidine-1-carbonyl]-4-methyl-4-[4-(oxetan-3-yl)piperazin-1-yl]pent-2-enenitrile] |  | greater than 10 % (w/v) | approximately 2 fold | more metabolically stable | 1780 | 14400 | 668 to 1640 | 26,800 ng*hr/ml | 994 | statistically increased permeabilities
